Structures are written as SMILES.

The target of this experiment is T1, Carboxypeptidase A1 (Bos taurus, UniProt P00730).
T1 sequence (P00730 whole entry): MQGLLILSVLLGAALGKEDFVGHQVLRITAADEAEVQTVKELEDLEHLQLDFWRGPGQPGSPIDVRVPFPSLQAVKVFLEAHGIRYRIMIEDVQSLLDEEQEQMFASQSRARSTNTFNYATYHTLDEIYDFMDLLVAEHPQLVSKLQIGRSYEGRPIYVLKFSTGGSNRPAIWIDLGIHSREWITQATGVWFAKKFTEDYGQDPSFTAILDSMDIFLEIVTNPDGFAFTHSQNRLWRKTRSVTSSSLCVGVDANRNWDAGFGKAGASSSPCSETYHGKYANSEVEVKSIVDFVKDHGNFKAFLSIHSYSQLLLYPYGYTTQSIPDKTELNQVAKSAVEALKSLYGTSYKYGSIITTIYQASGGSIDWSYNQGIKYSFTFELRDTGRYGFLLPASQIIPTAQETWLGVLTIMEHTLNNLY
Nature of the experiment: Inhibitory activity against Carboxypeptidase A.

In turn, `NS(=O)(=O)NCC(Cc1ccccc1)C(=O)O` (stereo not drawn) gave a Ki of 2900 µM.

In the case of `NS(=O)(=O)NC[C@@H](Cc1ccccc1)C(=O)O`, the affinity, expressed as Ki, was 1400 µM.

Compound `O=C(O)[C@H](Cc1ccccc1)NS(=O)(=O)NCCc1ccccc1` yielded a Ki of 180 µM.

On to `CC(C)NS(=O)(=O)N[C@@H](Cc1ccccc1)C(=O)O`, for which the Ki turned out to be 610 µM.

Consider `NS(=O)(=O)N[C@H](Cc1ccccc1)C(=O)O`, for which the inhibitory constant (Ki) stood at 470 µM.

Turning to `CN([C@@H](Cc1ccccc1)C(=O)O)S(N)(=O)=O`, the affinity, expressed as Ki, was 3500 µM.

For `O=C(O)[C@H](Cc1ccccc1)NS(=O)(=O)NCc1ccccc1`, the affinity, expressed as Ki, was 35 µM.

Consider `CNS(=O)(=O)N[C@@H](Cc1ccccc1)C(=O)O`, for which the Ki is 180 µM.

Values taken from ChEMBL document CHEMBL1135659, “Sulfamide-based inhibitors for carboxypeptidase A. Novel type transition state analogue inhibitors for zinc proteases” (J Med Chem, 2002).
